The values that follow come from article PMC7531004, “Discovery of gramicidin A analogues with altered activities by multidimensional screening of a one-bead-one-compound library” (Nature Communications, 2020).

Where a SMILES comes first, the peptide text is derived from it. [ ]: non-standard residue; d: D form. The star is where a group is joined. NHCH2CH2OH = OCCN*; For = O=C*

In data set [1] the test system is Streptococcus pyogenes SSI-9. As to the kind of experiment: Antibacterial activity assay of bead-derived peptides (three concentrations). Further details: key: +++: inhibition by the 640-fold diluted peptide solution; ++: inhibition by the 160-fold diluted solution; +: inhibition by the 40-fold diluted solution; -: no inhibition. The settings on record: S. pyogenes, bead-derived peptide solution, three concentrations. In kind it is cell-based. Put shortly:
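First, each peptide stock was diluted 4- and 16-fold in DMSO; next, the three solutions were mixed with S. pyogenes SSI-9 suspension (2 × 10^5 CFU) in cation-adjusted Mueller Hinton Broth plus 5% laked horse blood; finally, plates stood 18 h at 37 °C before checking for grown-cell precipitation.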

Data set [2] is described as follows: H+/Na+ transport assay of bead-derived peptides (one-point).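 Also: relative to parent gramicidin A activity set to 1.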 In kind it is biochemical. Also on record: key: relative activity; mean of two control wells = 1.00. The settings on record: bead-derived peptide solution, EYPC/EYPG LUVs. The method in brief: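 Pyranine (1.0 mM)-loaded LUVs containing egg yolk phosphatidylglycerol were prepared by film hydration, sonication and extrusion, then mixed with diluted bead-derived peptide in 96-well format and vortexed 30 min at room temperature. Fluorescence was normalized between untreated LUVs (0%) and Triton X-100 lysis (100%).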

In data set [3] the test system is P388 mouse leukemia cells. The settings on record: 92 h. Put shortly:
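Peptide stocks diluted 250× in growth medium; P388 cells 1 × 10^4 cells/mL final; 37 °C, 5% CO2, 92 h. WST-1 + 1-methoxy PMS, 4 h, A415. Output: % viability.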

With `CNC(=O)C[C@@H](NC(=O)[C@H](Cc1c[nH]c2ccccc12)NC(=O)[C@H](NC(=O)[C@H](Cc1c[nH]c2ccccc12)NC(=O)[C@H](NC(=O)[C@H](Cc1c[nH]c2ccccc12)NC(=O)[C@@H](CC(C)C)NC(=O)[C@@H](NC(=O)[C@H](NC(=O)[C@H](C)NC(=O)[C@@H](CC(C)C)NC(=O)[C@H](C)NC(=O)CNC(=O)[C@@H](NC=O)C(C)C)C(C)C)C(C)C)C(C)C)C(C)C)C(=O)N[C@@H](Cc1c[nH]c2ccccc12)C(=O)NCCO` [compound 6808] (For-VGA[dL]A[dV]V[dL]W[dV]W[dV]W[dD](NHMe)W-NHCH2CH2OH), the antibacterial activity entry in data set [1] is listed as “-”. Further, in data set [2], the “H+/Na+ transport activity normalized against the value of 1 (1.00)” value (from here on “H+/Na+ transport activity normalized”) is 1.02. The compound also yielded a cell viability/% in data set [3] of 100.0%.

Regarding `CC(C)C[C@@H](NC(=O)[C@H](Cc1c[nH]c2ccccc12)NC(=O)[C@H](NC(=O)[C@H](Cc1c[nH]c2ccccc12)NC(=O)[C@H](NC(=O)[C@@H](NC(=O)[C@H](NC(=O)[C@H](C)NC(=O)[C@H](NC(=O)[C@H](C)NC(=O)CNC(=O)[C@@H](NC=O)C(C)C)[C@H](C)O)C(C)C)C(C)C)C(C)C)C(C)C)C(=O)N[C@@H](Cc1c[nH]c2ccccc12)C(=O)N[C@@H](C(=O)N[C@@H](Cc1c[nH]c2ccccc12)C(=O)NCCO)C(C)C` [compound 6820] (For-VGA[dT]A[dV]V[dV]W[dV]W[dL]W[dV]W-NHCH2CH2OH), the antibacterial activity entry in data set [1] is on record as “-”. For the same compound, the “H+/Na+ transport activity normalized” value in data set [2] is given as 1.20. This compound registered a cell viability/% in data set [3] of 100.0%.

With `CNC(=O)C[C@@H](NC(=O)[C@@H](NC(=O)[C@@H](CC(C)C)NC(=O)[C@H](C)NC(=O)[C@H](NC(=O)[C@H](C)NC(=O)CNC(=O)[C@@H](NC=O)C(C)C)C(C)C)C(C)C)C(=O)N[C@@H](Cc1c[nH]c2ccccc12)C(=O)N[C@H](CC(C)C)C(=O)N[C@@H](Cc1c[nH]c2ccccc12)C(=O)N[C@@H](C(=O)N[C@@H](Cc1c[nH]c2ccccc12)C(=O)N[C@@H](C(=O)N[C@@H](Cc1c[nH]c2ccccc12)C(=O)NCCO)C(C)C)C(C)C` [compound 6822] (For-VGA[dV]A[dL]V[dD](NHMe)W[dL]W[dV]W[dV]W-NHCH2CH2OH), the antibacterial activity entry in data set [1] is “-”. The “H+/Na+ transport activity normalized” value in data set [2] is recorded as 1.23. In addition, the cell viability/% in data set [3] is recorded as 100.0%.

For `CNC(=O)C[C@@H](NC(=O)[C@H](Cc1c[nH]c2ccccc12)NC(=O)[C@@H](CC(C)C)NC(=O)[C@H](Cc1c[nH]c2ccccc12)NC(=O)[C@@H](CC(C)C)NC(=O)[C@H](Cc1c[nH]c2ccccc12)NC(=O)[C@H](NC(=O)[C@@H](NC(=O)[C@@H](CC(C)C)NC(=O)[C@H](C)NC(=O)[C@@H](CC(C)C)NC(=O)[C@H](C)NC(=O)CNC(=O)[C@@H](NC=O)C(C)C)C(C)C)C(C)C)C(=O)N[C@@H](Cc1c[nH]c2ccccc12)C(=O)NCCO` [compound 6829] (For-VGA[dL]A[dL]V[dV]W[dL]W[dL]W[dD](NHMe)W-NHCH2CH2OH), the antibacterial activity entry in data set [1] is “-”. Besides, the “H+/Na+ transport activity normalized” value in data set [2] came to 1.05. In addition, the cell viability/% in data set [3] is listed as 100.0%.

Take `CC(C)C[C@@H](NC(=O)[C@H](Cc1c[nH]c2ccccc12)NC(=O)[C@H](NC(=O)[C@@H](NC(=O)[C@H](NC(=O)[C@H](C)NC(=O)[C@H](NC(=O)[C@H](C)NC(=O)CNC(=O)[C@@H](NC=O)C(C)C)[C@H](C)O)C(C)C)C(C)C)C(C)C)C(=O)N[C@@H](Cc1c[nH]c2ccccc12)C(=O)N[C@H](CC(C)C)C(=O)N[C@@H](Cc1c[nH]c2ccccc12)C(=O)N[C@@H](C(=O)N[C@@H](Cc1c[nH]c2ccccc12)C(=O)NCCO)C(C)C` [compound 6843] (For-VGA[dT]A[dV]V[dV]W[dL]W[dL]W[dV]W-NHCH2CH2OH): the antibacterial activity result in data set [1] is “-”. In addition, the “H+/Na+ transport activity normalized” value in data set [2] stood at 1.15. The cell viability/% in data set [3] stood at 100.0%.

Regarding `CNC(=O)C[C@@H](NC(=O)[C@@H](NC(=O)[C@@H](CC(C)C)NC(=O)[C@H](C)NC(=O)[C@@H](CC(C)C)NC(=O)[C@H](C)NC(=O)CNC(=O)[C@@H](NC=O)C(C)C)C(C)C)C(=O)N[C@@H](Cc1c[nH]c2ccccc12)C(=O)N[C@H](CC(C)C)C(=O)N[C@@H](Cc1c[nH]c2ccccc12)C(=O)N[C@H](CC(C)C)C(=O)N[C@@H](Cc1c[nH]c2ccccc12)C(=O)N[C@@H](C(=O)N[C@@H](Cc1c[nH]c2ccccc12)C(=O)NCCO)C(C)C` [compound 6851] (For-VGA[dL]A[dL]V[dD](NHMe)W[dL]W[dL]W[dV]W-NHCH2CH2OH), the antibacterial activity entry in data set [1] is given as “-”. Also, the “H+/Na+ transport activity normalized” value in data set [2] amounted to 1.16. For the same compound, the cell viability/% in data set [3] was 100.0%.

As to `CC(C)C[C@@H](NC(=O)[C@H](C)NC(=O)[C@H](NC(=O)[C@H](C)NC(=O)CNC(=O)[C@@H](NC=O)C(C)C)[C@H](C)O)C(=O)N[C@H](C(=O)N[C@@H](C(=O)N[C@@H](Cc1c[nH]c2ccccc12)C(=O)N[C@@H](C(=O)N[C@@H](Cc1c[nH]c2ccccc12)C(=O)N[C@H](CC(C)C)C(=O)N[C@@H](Cc1c[nH]c2ccccc12)C(=O)N[C@@H](C(=O)N[C@@H](Cc1c[nH]c2ccccc12)C(=O)NCCO)C(C)C)C(C)C)C(C)C)C(C)C` [compound 6857] (For-VGA[dT]A[dL]V[dV]W[dV]W[dL]W[dV]W-NHCH2CH2OH), the antibacterial activity entry in data set [1] is “-”. Further, in data set [2], the “H+/Na+ transport activity normalized” value stood at 1.16. In data set [3], the cell viability/% came out at 100.0%.

For the compound `CC(C)C[C@@H](NC(=O)[C@H](C)NC(=O)CNC(=O)[C@@H](NC=O)C(C)C)C(=O)N[C@@H](C)C(=O)N[C@@H](C(=O)N[C@H](C(=O)N[C@@H](C(=O)N[C@@H](Cc1c[nH]c2ccccc12)C(=O)N[C@@H](C(=O)N[C@@H](Cc1c[nH]c2ccccc12)C(=O)N[C@H](CC(C)C)C(=O)N[C@@H](Cc1c[nH]c2ccccc12)C(=O)N[C@@H](C(=O)N[C@@H](Cc1c[nH]c2ccccc12)C(=O)NCCO)C(C)C)C(C)C)C(C)C)C(C)C)C(C)C` [compound 6861] (For-VGA[dL]A[dV]V[dV]W[dV]W[dL]W[dV]W-NHCH2CH2OH), the antibacterial activity entry in data set [1] is on record as “+”. The “H+/Na+ transport activity normalized” value in data set [2] was 1.18. Further, the cell viability/% in data set [3] is 100.0%.

In the case of `CNC(=O)C[C@@H](NC(=O)[C@@H](NC(=O)[C@H](NC(=O)[C@H](C)NC(=O)[C@H](NC(=O)[C@H](C)NC(=O)CNC(=O)[C@@H](NC=O)C(C)C)C(C)C)C(C)C)C(C)C)C(=O)N[C@@H](Cc1c[nH]c2ccccc12)C(=O)N[C@H](CC(C)C)C(=O)N[C@@H](Cc1c[nH]c2ccccc12)C(=O)N[C@H](CC(C)C)C(=O)N[C@@H](Cc1c[nH]c2ccccc12)C(=O)N[C@H](CC(C)C)C(=O)N[C@@H](Cc1c[nH]c2ccccc12)C(=O)NCCO` [compound 6862] (For-VGA[dV]A[dV]V[dD](NHMe)W[dL]W[dL]W[dL]W-NHCH2CH2OH), the antibacterial activity result in data set [1] is reported as “-”. Also, the “H+/Na+ transport activity normalized” value in data set [2] is on record as 1.31. Besides, in data set [3], the cell viability/% worked out at 100.0%.

Take `CC(C)C[C@@H](NC(=O)[C@H](C)NC(=O)CNC(=O)[C@@H](NC=O)C(C)C)C(=O)N[C@@H](C)C(=O)N[C@H](CC(C)C)C(=O)N[C@H](C(=O)N[C@@H](C(=O)N[C@@H](Cc1c[nH]c2ccccc12)C(=O)N[C@@H](C(=O)N[C@@H](Cc1c[nH]c2ccccc12)C(=O)N[C@@H](C(=O)N[C@@H](Cc1c[nH]c2ccccc12)C(=O)N[C@H](CC(C)C)C(=O)N[C@@H](Cc1c[nH]c2ccccc12)C(=O)NCCO)[C@H](C)O)C(C)C)C(C)C)C(C)C` [compound 6876] (For-VGA[dL]A[dL]V[dV]W[dV]W[dT]W[dL]W-NHCH2CH2OH): in data set [1], the antibacterial activity entry is listed as “-”. The “H+/Na+ transport activity normalized” value in data set [2] was determined as 1.13. This compound also came in with a cell viability/% in data set [3] of 100.0%.

For `CC(C)C[C@@H](NC(=O)[C@H](C)NC(=O)[C@H](NC(=O)[C@H](C)NC(=O)CNC(=O)[C@@H](NC=O)C(C)C)C(C)C)C(=O)N[C@H](C(=O)N[C@@H](C(=O)N[C@@H](Cc1c[nH]c2ccccc12)C(=O)N[C@H](CC(C)C)C(=O)N[C@@H](Cc1c[nH]c2ccccc12)C(=O)N[C@@H](C(=O)N[C@@H](Cc1c[nH]c2ccccc12)C(=O)N[C@@H](C(=O)N[C@@H](Cc1c[nH]c2ccccc12)C(=O)NCCO)C(C)C)C(C)C)C(C)C)C(C)C` [compound 6888] (For-VGA[dV]A[dL]V[dV]W[dL]W[dV]W[dV]W-NHCH2CH2OH), in data set [1], the antibacterial activity result is given as “+”. For the same compound, the “H+/Na+ transport activity normalized” value in data set [2] turned out to be 1.23. Further, the cell viability/% in data set [3] was found to be 78.6%.

As for `CNC(=O)C[C@@H](NC(=O)[C@H](Cc1c[nH]c2ccccc12)NC(=O)[C@H](NC(=O)[C@@H](NC(=O)[C@@H](CC(C)C)NC(=O)[C@H](C)NC(=O)[C@@H](CC(C)C)NC(=O)[C@H](C)NC(=O)CNC(=O)[C@@H](NC=O)C(C)C)C(C)C)C(C)C)C(=O)N[C@@H](Cc1c[nH]c2ccccc12)C(=O)N[C@H](CC(C)C)C(=O)N[C@@H](Cc1c[nH]c2ccccc12)C(=O)N[C@@H](C(=O)N[C@@H](Cc1c[nH]c2ccccc12)C(=O)NCCO)C(C)C` [compound 6889] (For-VGA[dL]A[dL]V[dV]W[dD](NHMe)W[dL]W[dV]W-NHCH2CH2OH), in data set [1], the antibacterial activity result is “-”. Also, the “H+/Na+ transport activity normalized” value in data set [2] is listed as 1.10. In data set [3], this compound returned a cell viability/% of 100.0%.
